Laboratory results published in patent US12077503B2, “Substituted cyclic amides and their use as herbicides” (FMC CORPORATION, priority 2015, dated 2024).
Read-outs that look alike come from different tables or passages of the source.

Tests used:
Assay in all cases: Test A preemergence
Assay type in all cases: in vivo
[1] = tested on: pigweed (Amaranthus retroflexus); details: Amaranthus retroflexus, pre-emergence, 240 h, preemergence, read-out: Pigweed plant response rating; for pest or weed control at 125 g/ha: 125 g ai/ha; for pest or weed control at 500 g/ha: 500 g ai/ha
[2] = tested on: barnyardgrass (Echinochloa crus-galli); details: Echinochloa crus-galli, pre-emergence, 240 h, preemergence, read-out: Barnyardgrass plant response rating; for pest or weed control at 125 g/ha: 125 g ai/ha; for pest or weed control at 500 g/ha: 500 g ai/ha
In short: (§1)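 Each rating is a visual injury score from 0 to 100 given about 10 d after treatment, judged against untreated controls kept alongside in the greenhouse. In loam soil–sand blend, seeds got a preemergence directed soil spray, while postemergence plants were 2 to 10 cm tall at spraying.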

[3] = tested on: ryegrass, Italian (Italian ryegrass, Lolium multiflorum); details: Lolium multiflorum, pre-emergence, 240 h, preemergence, read-out: Ryegrass, Italian plant response rating; for pest or weed control at 125 g/ha: 125 g ai/ha; for pest or weed control at 500 g/ha: 500 g ai/ha
In short: as §1

Kochia (Kochia scoparia) = details: Bassia scoparia, pre-emergence, 240 h, preemergence, read-out: Kochia plant response rating; for pest or weed control at 125 g/ha: 125 g ai/ha; for pest or weed control at 500 g/ha: 500 g ai/ha
In short: as §1

[4] = tested on: giant foxtail (Setaria faberii); details: Setaria faberi, pre-emergence, 240 h, preemergence, read-out: Foxtail, Giant plant response rating; for pest or weed control at 125 g/ha: 125 g ai/ha; for pest or weed control at 500 g/ha: 500 g ai/ha
In short: as §1

[5] = 0 to 100 scale where 0 is no effect and 100 is complete control, approx. 10 d
[6] = visual injury rating about 10 d after treatment, 0 to 100 scale (0 no effect, 100 complete control)
[7] = 0 to 100 scale where 0 is no effect and 100 is complete control
[8] = visual injury rating, 0 to 100 scale where 0 is no effect and 100 is complete control, approximately 10 d

SMILES | pest or weed control at 125 g/ha [1, 5] [%] | pest or weed control at 500 g/ha [1, 6] [%] | pest or weed control at 125 g/ha [2, 5] [%] | pest or weed control at 500 g/ha [2, 6] [%] | pest or weed control at 125 g/ha [3, 5] [%] | pest or weed control at 500 g/ha [3, 6] [%] | pest or weed control at 125 g/ha (Kochia (Kochia scoparia); [5]) [%] | pest or weed control at 500 g/ha (Kochia (Kochia scoparia); [6]) [%] | pest or weed control at 125 g/ha [4, 5] [%] | pest or weed control at 500 g/ha [4, 6] [%] | pest or weed control at 500 g/ha [1, 7] [%] | pest or weed control at 500 g/ha [3, 7] [%] | pest or weed control at 500 g/ha (Kochia (Kochia scoparia); [7]) [%] | pest or weed control at 500 g/ha [4, 7] [%] | pest or weed control at 500 g/ha [2, 7] [%] | pest or weed control at 125 g/ha [1, 8] [%] | pest or weed control at 125 g/ha [2, 8] [%] | pest or weed control at 125 g/ha [3, 8] [%] | pest or weed control at 125 g/ha (Kochia (Kochia scoparia); [8]) [%] | pest or weed control at 125 g/ha [4, 8] [%]
Cc1cc([C@H]2CN(C)C(=O)[C@@H]2C(=O)Nc2cccc(F)c2F)ccc1Br [Compound 1099] | 0 | 30 | 90 | 90 | 50 | 70 | 60 | 70 | 90 | 90 | – | – | – | – | – | – | – | – | – | –
O=C1NC[C@H](c2cscn2)[C@H]1C(=O)Nc1cccc(F)c1F [Compound 1111] | 0 | – | 0 | 0 | 0 | – | 0 | – | 0 | – | 0 | 20 | 0 | 0 | – | – | – | – | – | –
O=C1NC[C@H](c2cc(C(F)F)cs2)[C@H]1C(=O)Nc1ccccc1F [Compound 1116] | 0 | – | 90 | 90 | 0 | – | 0 | – | 20 | – | 20 | 20 | 30 | 90 | – | – | – | – | – | –
O=C1NC[C@H](c2cc(C(F)F)cs2)[C@H]1C(=O)Nc1cccc(F)c1F [Compound 1117] | 0 | – | 90 | 90 | 0 | – | 40 | – | 50 | – | 0 | 60 | 70 | 90 | – | – | – | – | – | –
CN1C[C@H](c2csc(C(F)F)c2)[C@@H](C(=O)Nc2cccc(F)c2F)C1=O [Compound 1122] | 30 | – | 90 | 90 | 70 | – | 60 | – | 90 | – | 70 | 90 | 70 | 90 | – | – | – | – | – | –
CN1C[C@H](c2csc(C(F)F)c2)[C@@H](C(=O)Nc2ccccc2F)C1=O [Compound 1123] | 0 | – | 90 | 90 | 40 | – | 60 | – | 90 | – | 50 | 60 | 80 | 90 | – | – | – | – | – | –
CC(C)Oc1ccc([C@H]2CNC(=O)[C@@H]2C(=O)Nc2ccccc2F)cc1 [Compound 1135] | 0 | – | 0 | – | 0 | – | 0 | – | 0 | – | 0 | 0 | 0 | 0 | 0 | – | – | – | – | –
CC(C)Oc1ccc([C@H]2CNC(=O)[C@@H]2C(=O)Nc2cccc(F)c2F)cc1 [Compound 1136] | 0 | – | 30 | – | 0 | – | 0 | – | 30 | – | 0 | 30 | 80 | 90 | 90 | – | – | – | – | –
CC(C)Oc1ccc([C@H]2CNC(=O)[C@@H]2C(=O)Nc2ccc(F)cc2F)cc1 [Compound 1137] | 0 | – | 0 | – | 0 | – | 0 | – | 0 | – | 0 | 0 | 0 | 0 | 0 | – | – | – | – | –
CCc1cc(CC)cc([C@H]2CNC(=O)[C@@H]2C(=O)Nc2ccccc2F)c1 [Compound 1138] | 0 | – | 90 | – | 30 | – | 0 | – | 90 | – | 0 | 50 | 80 | 90 | 90 | – | – | – | – | –
CCc1ccc([C@H]2CNC(=O)[C@@H]2C(=O)Nc2cccc(F)c2C)cc1 [Compound 1177] | 0 | – | 70 | – | 30 | – | 30 | – | 70 | – | 20 | 70 | 30 | 100 | 100 | – | – | – | – | –
CCc1ccc([C@H]2CNC(=O)[C@@H]2C(=O)Nc2ccccc2SC)cc1 [Compound 1178] | 20 | – | 20 | – | 0 | – | 40 | – | 20 | – | 50 | 20 | 70 | 70 | 50 | – | – | – | – | –
CSc1ccccc1NC(=O)[C@H]1C(=O)N(C)C[C@@H]1c1ccc(C(F)(F)F)nc1 [Compound 1198] | – | – | – | – | – | – | – | – | – | – | 100 | 60 | 80 | 100 | 100 | 70 | 70 | 30 | 80 | 100
CN1C[C@H](c2ccc(C#N)cc2)[C@@H](C(=O)Nc2ccccc2F)C1=O [Compound 1207] | – | – | – | – | – | – | – | – | – | – | 60 | 20 | 90 | 100 | 100 | 0 | 60 | 0 | 30 | 80
